Measurements taken from US9550772B2, “Azaindole derivatives as multi kinase inhibitors” (ORIBASE PHARMA, priority 2012, dated 2017).
Like-named read-outs stand apart in the source and are kept apart here.

What was measured:
BRAF = target: T1, BRAF (Homo sapiens, UniProt P15056); assay: In vitro kinase assay (Z'-LYTE, Invitrogen); assay type: biochemical; settings: compound at 100 nM, ATP Km apparent, read-out: % of inhibition of the kinase compared to the control
T1 construct: purchased Invitrogen
Protocol: (§1) The inhibitory activity of the compounds on 7 kinases (BRAF, EGFR (ErbB1), EGFR (ErbB1) T790M L858R, FGFR2, KDR (VEGFR2), PDGFRA (PDGFR alpha), SRC) was evaluated by Invitrogen using the Z′-LYTE® technology. Briefly, the Z′-LYTE® biochemical assay employs a fluorescence-based, coupled-enzyme format and is based on the differential sensitivity of phosphorylated and non-phosphorylated peptides to proteolytic cleavage. The peptide substrate is labeled with two fluorophores—one at each end—that make up a FRET pair. A ratiometric method, which calculates the ratio (the Emission Ratio) of donor emission to acceptor emission after excitation of the donor fluorophore at 400 nm, is used to quantitate reaction progress.
(§2) The compounds are screened in 1% DMSO (final) in the well. For 10 point titrations, 3-fold serial dilutions are conducted from the starting concentration. All Peptide/Kinase Mixtures are diluted to a 2× working concentration in the appropriate Kinase Buffer. All ATP Solutions are diluted to a 4× working concentration in Kinase Buffer (50 mM HEPES pH 7.5, 0.01% BRIJ-35, 10 mM MgCl2, 1 mM EGTA). ATP Km apparent is previously determined using a Z′-LYTE® assay.
(§3) Each compound was incubated at a concentration of 100 nM and the tables 21 to 27 summarize the results obtained showing the inhibitory power of a compound.

KDR (VEGFR2) = target: T2, KDR (VEGFR2) (Homo sapiens, UniProt P35968); assay: In vitro kinase assay (Z'-LYTE, Invitrogen); assay type: biochemical; settings: compound at 100 nM, ATP Km apparent, read-out: % of inhibition of the kinase compared to the control
T2 construct: purchased Invitrogen
Protocol: as §1, §2, §3

PDGFRA (PDGFR alpha) = target: T3, PDGFRA (PDGFR alpha) (Homo sapiens, UniProt P16234); assay: In vitro kinase assay (Z'-LYTE, Invitrogen); assay type: biochemical; settings: compound at 100 nM, ATP Km apparent, read-out: % of inhibition of the kinase compared to the control
T3 construct: purchased Invitrogen
Protocol: as §1, §2, §3

FGFR2 = target: T4, FGFR2 (Homo sapiens, UniProt P21802); assay: In vitro kinase assay (Z'-LYTE, Invitrogen); assay type: biochemical; settings: compound at 100 nM, ATP Km apparent, read-out: % of inhibition of the kinase compared to the control
T4 construct: purchased Invitrogen
Protocol: as §1, §2, §3

EGFR (ErbB1) = target: T5, EGFR (ErbB1) (Homo sapiens, UniProt P00533); assay: In vitro kinase assay (Z'-LYTE, Invitrogen); assay type: biochemical; settings: compound at 100 nM, ATP Km apparent, read-out: % of inhibition of the kinase compared to the control
T5 construct: purchased Invitrogen
Protocol: as §1, §2, §3

SRC = target: T6, SRC (Homo sapiens, UniProt P12931); assay: In vitro kinase assay (Z'-LYTE, Invitrogen); assay type: biochemical; settings: compound at 100 nM, ATP Km apparent, read-out: % of inhibition of the kinase compared to the control
T6 construct: purchased Invitrogen
Protocol: as §1, §2, §3

HepG2 cell line = assay: In vitro cell proliferation assay (MTT); assay type: cell-based; settings: Homo sapiens, HepG2, 72 hr, read-out: EC50, anti-proliferative activity
Protocol: (§4) Cancer cell lines (5×10^3 cells per well) or HUVEC (1×10^4 cells per well) or HRMEC (1×10^4 cells per well) were distributed in 96-well plates and incubating in duplicate with escalating concentrations (10 nM to 3 μM) of compounds for 72 hr. Cell proliferation was measured using MTT (3[4,5-dimethylthiazol-2-yl]-2,5-diphenyltetrazolium bromide). The EC50 values were calculated from sigmoidal dose-response curves utilizing Prism 5.0 from Graph-Pad Software (GraphPad Software, La Jolla, Calif., USA), with values normalized to those of DMSO-treated control wells (0%) and 1% SDS control wells (100%).

MDA-MB-231 cell line = assay: In vitro cell proliferation assay (MTT); assay type: cell-based; settings: Homo sapiens, MDA-MB-231, 72 hr, read-out: EC50, anti-proliferative activity
Protocol: as §4

HUVEC cells = assay: In vitro cell proliferation assay (MTT); assay type: cell-based; settings: Homo sapiens, 72 hr, read-out: EC50, anti-proliferative activity
Protocol: as §4

HeLa cell line = assay: In vitro cell proliferation assay (MTT); assay type: cell-based; settings: Homo sapiens, 72 hr, read-out: EC50, anti-proliferative activity
Protocol: as §4

A549 cell line = assay: In vitro cell proliferation assay (MTT); assay type: cell-based; settings: Homo sapiens, A549, 72 h, read-out: EC50, anti-proliferative activity
Protocol: as §4

T3 sequence (P16234 24-1089): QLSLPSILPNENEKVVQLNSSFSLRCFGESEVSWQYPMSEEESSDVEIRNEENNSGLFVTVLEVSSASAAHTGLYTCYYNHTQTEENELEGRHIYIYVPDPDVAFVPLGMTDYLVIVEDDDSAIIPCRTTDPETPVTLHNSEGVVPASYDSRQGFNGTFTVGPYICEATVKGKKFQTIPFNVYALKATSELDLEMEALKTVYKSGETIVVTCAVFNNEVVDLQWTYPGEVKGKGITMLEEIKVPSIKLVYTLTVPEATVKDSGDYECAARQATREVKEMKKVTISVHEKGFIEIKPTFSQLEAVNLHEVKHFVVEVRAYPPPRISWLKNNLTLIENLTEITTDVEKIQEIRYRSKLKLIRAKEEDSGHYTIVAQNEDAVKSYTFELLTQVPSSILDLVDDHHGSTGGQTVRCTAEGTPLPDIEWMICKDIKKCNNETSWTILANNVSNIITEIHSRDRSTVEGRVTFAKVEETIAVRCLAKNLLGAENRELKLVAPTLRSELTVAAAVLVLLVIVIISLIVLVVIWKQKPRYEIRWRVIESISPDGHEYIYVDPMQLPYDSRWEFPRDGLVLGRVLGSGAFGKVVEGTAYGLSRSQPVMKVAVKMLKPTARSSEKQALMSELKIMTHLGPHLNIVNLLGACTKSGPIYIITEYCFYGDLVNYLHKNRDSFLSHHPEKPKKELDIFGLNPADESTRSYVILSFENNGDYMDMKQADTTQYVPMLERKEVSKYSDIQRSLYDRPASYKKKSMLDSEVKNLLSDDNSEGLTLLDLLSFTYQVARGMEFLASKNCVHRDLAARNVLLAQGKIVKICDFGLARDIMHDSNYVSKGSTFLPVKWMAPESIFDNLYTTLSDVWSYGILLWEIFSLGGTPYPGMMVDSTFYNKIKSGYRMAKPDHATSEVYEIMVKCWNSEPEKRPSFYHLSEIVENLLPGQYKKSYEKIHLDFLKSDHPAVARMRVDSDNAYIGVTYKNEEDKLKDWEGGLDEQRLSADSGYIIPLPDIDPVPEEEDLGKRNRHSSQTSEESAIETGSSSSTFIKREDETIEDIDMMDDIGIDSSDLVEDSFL
T2 sequence (P35968 20-1356): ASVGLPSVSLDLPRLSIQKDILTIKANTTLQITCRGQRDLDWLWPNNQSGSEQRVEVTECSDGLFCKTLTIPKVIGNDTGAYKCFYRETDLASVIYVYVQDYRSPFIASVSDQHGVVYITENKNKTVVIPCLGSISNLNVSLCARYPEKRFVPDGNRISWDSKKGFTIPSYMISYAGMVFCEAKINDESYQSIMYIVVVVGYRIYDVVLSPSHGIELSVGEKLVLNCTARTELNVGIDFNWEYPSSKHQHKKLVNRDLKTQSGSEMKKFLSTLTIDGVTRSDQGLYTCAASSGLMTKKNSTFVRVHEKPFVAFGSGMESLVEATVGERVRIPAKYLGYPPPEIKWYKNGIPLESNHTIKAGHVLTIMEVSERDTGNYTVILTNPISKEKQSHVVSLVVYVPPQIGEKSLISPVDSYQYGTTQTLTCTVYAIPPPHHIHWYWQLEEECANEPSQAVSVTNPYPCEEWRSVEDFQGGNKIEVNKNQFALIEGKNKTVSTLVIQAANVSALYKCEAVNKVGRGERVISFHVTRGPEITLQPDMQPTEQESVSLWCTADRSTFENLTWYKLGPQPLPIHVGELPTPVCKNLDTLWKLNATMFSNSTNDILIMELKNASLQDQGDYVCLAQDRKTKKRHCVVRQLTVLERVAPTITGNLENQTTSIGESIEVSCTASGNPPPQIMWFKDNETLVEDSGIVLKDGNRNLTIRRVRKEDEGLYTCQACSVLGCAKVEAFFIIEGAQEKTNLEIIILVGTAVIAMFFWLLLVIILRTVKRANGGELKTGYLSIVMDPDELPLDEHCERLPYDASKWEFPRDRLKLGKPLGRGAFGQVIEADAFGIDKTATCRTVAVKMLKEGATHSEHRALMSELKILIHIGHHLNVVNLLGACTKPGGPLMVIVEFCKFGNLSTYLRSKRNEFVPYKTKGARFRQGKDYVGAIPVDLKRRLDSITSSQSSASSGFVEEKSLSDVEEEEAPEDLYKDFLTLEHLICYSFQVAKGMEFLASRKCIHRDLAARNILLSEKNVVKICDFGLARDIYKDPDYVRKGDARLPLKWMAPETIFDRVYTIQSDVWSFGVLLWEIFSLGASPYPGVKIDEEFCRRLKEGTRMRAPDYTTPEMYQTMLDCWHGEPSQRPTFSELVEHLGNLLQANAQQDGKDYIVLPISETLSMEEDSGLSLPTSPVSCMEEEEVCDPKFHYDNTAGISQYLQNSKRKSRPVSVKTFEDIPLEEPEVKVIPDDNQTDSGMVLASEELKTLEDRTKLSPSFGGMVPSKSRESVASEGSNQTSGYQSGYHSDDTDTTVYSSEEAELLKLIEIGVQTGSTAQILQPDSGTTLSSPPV
T4 sequence (P21802 22-821): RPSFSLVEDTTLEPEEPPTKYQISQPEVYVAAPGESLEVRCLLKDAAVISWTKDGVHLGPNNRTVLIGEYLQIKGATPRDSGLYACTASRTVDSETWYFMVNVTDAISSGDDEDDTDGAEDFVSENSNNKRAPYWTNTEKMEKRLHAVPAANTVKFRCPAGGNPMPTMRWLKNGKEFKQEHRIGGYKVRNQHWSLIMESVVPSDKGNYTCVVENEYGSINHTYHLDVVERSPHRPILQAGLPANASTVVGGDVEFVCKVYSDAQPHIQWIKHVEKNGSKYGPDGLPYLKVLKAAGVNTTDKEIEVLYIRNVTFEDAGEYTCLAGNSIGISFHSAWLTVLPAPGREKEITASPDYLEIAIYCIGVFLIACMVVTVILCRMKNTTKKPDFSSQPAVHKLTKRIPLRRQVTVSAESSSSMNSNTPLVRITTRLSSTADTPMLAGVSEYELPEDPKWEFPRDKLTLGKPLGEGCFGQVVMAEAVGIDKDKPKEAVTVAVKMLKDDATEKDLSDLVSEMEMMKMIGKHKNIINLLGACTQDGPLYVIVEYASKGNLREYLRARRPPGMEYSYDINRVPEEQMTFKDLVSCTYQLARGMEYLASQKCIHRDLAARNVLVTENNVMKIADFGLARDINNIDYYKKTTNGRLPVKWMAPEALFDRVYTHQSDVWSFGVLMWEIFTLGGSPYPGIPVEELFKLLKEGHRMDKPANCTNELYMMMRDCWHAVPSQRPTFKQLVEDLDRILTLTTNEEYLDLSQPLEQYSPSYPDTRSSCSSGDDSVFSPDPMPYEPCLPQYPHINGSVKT
T5 sequence (P00533 25-1210): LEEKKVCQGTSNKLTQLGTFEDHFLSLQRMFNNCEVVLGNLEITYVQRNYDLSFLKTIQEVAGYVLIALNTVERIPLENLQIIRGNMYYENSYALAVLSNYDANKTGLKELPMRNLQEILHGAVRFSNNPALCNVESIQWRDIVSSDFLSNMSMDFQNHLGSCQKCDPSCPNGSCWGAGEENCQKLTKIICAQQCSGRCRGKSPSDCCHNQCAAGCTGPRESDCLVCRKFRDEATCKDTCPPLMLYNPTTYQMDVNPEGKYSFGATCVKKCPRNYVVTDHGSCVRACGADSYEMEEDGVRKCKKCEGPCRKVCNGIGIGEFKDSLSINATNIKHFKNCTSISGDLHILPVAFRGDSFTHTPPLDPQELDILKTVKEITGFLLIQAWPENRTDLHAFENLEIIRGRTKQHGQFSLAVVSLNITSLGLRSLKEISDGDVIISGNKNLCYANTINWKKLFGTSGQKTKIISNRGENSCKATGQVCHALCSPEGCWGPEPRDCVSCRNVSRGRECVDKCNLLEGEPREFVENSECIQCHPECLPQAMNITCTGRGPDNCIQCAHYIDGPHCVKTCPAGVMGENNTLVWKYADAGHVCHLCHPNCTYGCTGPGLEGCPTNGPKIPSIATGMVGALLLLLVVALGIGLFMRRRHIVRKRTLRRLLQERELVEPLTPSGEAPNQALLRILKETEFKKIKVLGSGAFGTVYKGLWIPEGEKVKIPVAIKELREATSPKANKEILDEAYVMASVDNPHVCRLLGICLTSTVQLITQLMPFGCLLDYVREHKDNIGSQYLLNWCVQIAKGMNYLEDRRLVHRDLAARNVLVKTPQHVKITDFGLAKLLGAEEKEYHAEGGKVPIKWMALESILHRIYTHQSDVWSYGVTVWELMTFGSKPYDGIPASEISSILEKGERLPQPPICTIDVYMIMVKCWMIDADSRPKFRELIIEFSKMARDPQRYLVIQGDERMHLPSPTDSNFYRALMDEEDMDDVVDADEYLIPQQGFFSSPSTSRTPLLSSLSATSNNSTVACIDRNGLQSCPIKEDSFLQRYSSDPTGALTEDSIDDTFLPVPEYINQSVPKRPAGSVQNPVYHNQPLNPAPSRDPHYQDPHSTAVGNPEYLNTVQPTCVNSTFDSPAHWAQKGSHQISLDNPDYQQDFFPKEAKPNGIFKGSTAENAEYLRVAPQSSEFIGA
T6 sequence (P12931 whole entry): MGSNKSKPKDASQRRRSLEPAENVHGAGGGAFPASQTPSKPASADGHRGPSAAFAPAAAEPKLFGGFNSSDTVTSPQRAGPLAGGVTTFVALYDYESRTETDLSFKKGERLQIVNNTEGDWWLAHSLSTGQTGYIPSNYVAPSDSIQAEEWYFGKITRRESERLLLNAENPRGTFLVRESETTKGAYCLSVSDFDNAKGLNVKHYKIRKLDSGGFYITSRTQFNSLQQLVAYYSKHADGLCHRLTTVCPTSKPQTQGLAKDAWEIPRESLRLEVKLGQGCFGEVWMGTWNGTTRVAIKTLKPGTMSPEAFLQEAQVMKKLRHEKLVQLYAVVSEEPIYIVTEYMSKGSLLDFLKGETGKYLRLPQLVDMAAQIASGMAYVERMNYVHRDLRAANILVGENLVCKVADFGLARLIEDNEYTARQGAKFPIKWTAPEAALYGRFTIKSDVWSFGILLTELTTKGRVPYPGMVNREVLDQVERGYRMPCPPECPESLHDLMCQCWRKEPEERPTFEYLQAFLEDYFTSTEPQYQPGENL

Row | SMILES | inhibition at 0.1 µM (BRAF) [%] | inhibition at 0.1 µM (KDR (VEGFR2)) [%] | inhibition at 0.1 µM (PDGFRA (PDGFR alpha)) [%] | inhibition at 0.1 µM (FGFR2) [%] | inhibition at 0.1 µM (EGFR (ErbB1)) [%] | inhibition at 0.1 µM (SRC) [%] | EC50 (HepG2 cell line; 100 nM < EC50 < 1 μM) [µM] | EC50 (MDA-MB-231 cell line; 100 nM < EC50 < 1 μM) [µM] | EC50 (HUVEC cells; EC50 ≧ 1 μM) [µM] | EC50 (HeLa cell line; 100 nM < EC50 < 1 μM) [µM] | EC50 (A549 cell line; 100 nM < EC50 < 1 μM) [µM] | EC50 (HepG2 cell line; EC50 ≧ 1 μM) [µM] | EC50 (MDA-MB-231 cell line; EC50 ≧ 1 μM) [µM] | EC50 (HUVEC cells; 100 nM < EC50 < 1 μM) [µM] | EC50 (HeLa cell line; EC50 ≧ 1 μM) [µM] | EC50 (A549 cell line; EC50 ≧ 1 μM) [µM] | EC50 (HepG2 cell line; EC50 ≦ 100 nM) [µM] | EC50 (HUVEC cells; EC50 ≦ 100 nM) [µM]
1 | CC(=O)c1cc2cc(CCc3cc(NC(=O)c4cc(N5CCN(C)CC5)cc(C(F)(F)F)c4)ccc3C)cnc2[nH]1 [OR1059, N-{3-[2-(2-Acetyl-1H-pyrrolo[2,3-b]pyridin-5-yl)-ethyl]-4-methyl-phenyl}-3-(4-methyl-piperazin-1-yl)-5-trifluoromethyl-benzamide] | ≥ 50 | ≥ 50 | ≥ 50 | ≥ 50 | ≥ 50 | ≥ 50 | 0.1 to 1 | 0.1 to 1 | ≥ 1 | 0.1 to 1 | 0.1 to 1 | – | – | – | – | – | – | –
2 | COC(=O)c1cc2cc(CCc3cccc(NC(=S)Cc4cccc(C(F)(F)F)c4)c3)cnc2[nH]1 [OR1014, 5-(2-{3-[2-(3-Trifluoromethyl-phenyl)-thioacetylamino]-phenyl}-ethyl)-1H-pyrrolo[2,3-b]pyridine-2-carboxylic acid methyl ester] | < 50 | < 50 | < 50 | < 50 | < 50 | < 50 | – | – | – | – | – | ≥ 1 | ≥ 1 | 0.1 to 1 | ≥ 1 | ≥ 1 | – | –
3 | CC(=O)c1cc2cc(CCc3cc(NC(=O)Nc4cccc(C(F)(F)F)c4)ccc3C)cnc2[nH]1 [OR0919, 1-{3-[2-(2-Acetyl-1H-pyrrolo[2,3-b]pyridin-5-yl)-ethyl]-4-methyl-phenyl}-3-(3-trifluoromethyl-phenyl)-urea] | < 50 | < 50 | ≥ 50 | < 50 | < 50 | < 50 | – | 0.1 to 1 | ≥ 1 | – | – | – | – | – | ≥ 1 | ≥ 1 | ≤ 0.1 | –
4 | COC(=O)c1cc2cc(CCc3cc(NC(=O)C4CCC(C(F)(F)F)CC4)ccc3C)cnc2[nH]1 (stereo not shown) [OR1057, 5-(2-{2-Methyl-5-[(4-trifluoromethyl-cyclohexanecarbonyl)-amino]-phenyl)-ethyl)-1H-pyrrolo[2,3-b]pyridine-2-carboxylic acid methyl ester] | < 50 | < 50 | ≥ 50 | < 50 | ≥ 50 | ≥ 50 | – | – | ≥ 1 | – | – | ≥ 1 | ≥ 1 | – | ≥ 1 | ≥ 1 | – | –
5 | COC(=O)c1cc2cc(CCc3ccc(C)c(NC(=O)c4cc(-n5cnc(C)c5)cc(C(F)(F)F)c4)c3)cnc2[nH]1 [OR1068, 5-(2-{4-Methyl-3-[3-(4-methyl-imidazol-1-yl)-5-trifluoromethyl-benzoylamino]-phenyl}-ethyl)-1H-pyrrolo[2,3-b]pyridine-2-carboxylic acid methyl ester] | < 50 | ≥ 50 | ≥ 50 | ≥ 50 | ≥ 50 | ≥ 50 | – | – | – | – | – | ≥ 1 | ≥ 1 | 0.1 to 1 | ≥ 1 | ≥ 1 | – | –
6 | COC(=O)c1cc2cc(CCc3cc(NC(=O)c4ccc(CN5CCN(C)CC5)c(C(F)(F)F)c4)ccc3Cl)cnc2[nH]1 [OR1006, 5-(2-{2-Chloro-5-[4-(4-methyl-piperazin-1-ylmethyl)-3-trifluoromethyl-benzoylamino]-phenyl}ethyl)-1H-pyrrolo[2,3-b]pyridine-2-carboxylic acid methyl ester] | < 50 | ≥ 50 | – | ≥ 50 | ≥ 50 | – | – | 0.1 to 1 | – | 0.1 to 1 | 0.1 to 1 | ≥ 1 | – | – | – | – | – | ≤ 0.1
